pEC50, pIC50: −log10 of the molar value. Values after ≈ are worked out from the molar mass of the structure shown.
What was measured:
[1] = biological target: T1, Tyrosine-protein kinase SYK (Homo sapiens, UniProt P43405); assay: Inhibition of SYK in human Ramos cells assessed as reduction in antihuman IgM F(ab)2-induced phosphorylation of BLNK at Y96 residue preincubated for 1 hr followed by antihuman IgM F(ab)2 stimulation for 5 mins by MSD high bind plate assay; assay type: cell-based
[2] = biological target: T1, Tyrosine-protein kinase SYK; assay: Inhibition of SYK (unknown origin) using XL665-labeled peptide as substrate in presence of ATP measured after 30 mins by TR-FRET assay
[3] = Solubility of compound at pH 7.4; assay type: physicochemical; details: buffer
[4] = Clearance in human liver microsomes; assay type: ADME, Microsome
[5] = Solubility of compound at pH 2; assay type: physicochemical; details: buffer
[6] = biological target: T1, Tyrosine-protein kinase SYK; assay: Inhibition of SYK in human whole blood assessed as reduction in anti-FCepsilonR1 mAb-induced basophil activation by measuring decrease in CD63 surface expression incubated for 60 mins followed by anti-FCepsilonR1 mAb stimulation for 20 mins by flow cytometry analysis; assay type: tissue-based
[7] = Distribution coefficient, logD of compound; assay type: physicochemical; details: octanol/water
[8] = Efflux ratio of apparent permeability of compound in human Caco2 cells; assay type: ADME, cell-based; details: Caco-2
[9] = Apparent permeability of compound in human Caco2 cells; assay type: ADME, cell-based; details: Caco-2
[10] = Oral bioavailability in rat at 5 mg/kg; assay type: ADME, organism-based; details: in vivo

c1cn2cc(-c3ccc4cn[nH]c4n3)nc(Nc3ccc(N4CCN(C5COC5)CC4)cc3)c2n1
pEC50 [1]: 7.64 | pIC50 [2]: 8.17 | solubility [3]: 5 µM (≈ 2.34 µg/mL) | CLhep predicted [4]: 0.28 L/h/kg | solubility [5]: > 100 µM | pEC50 [6]: 7.07

c1cn2cc(-c3ccc4cn[nH]c4c3)nc(Nc3ccc(N4CC5(COC5)C4)cc3)c2n1
logD [7]: 1.9 to 2.7 | pEC50 [1]: 7.20 | pIC50 [2]: 8.30 | solubility [3]: < 1 µM | CLhep predicted [4]: 0.66 L/h/kg | solubility [5]: 88 µM (≈ 37.3 µg/mL) | pEC50 [6]: 5.82

c1cn2cc(-c3cnc4nc[nH]c4n3)nc(Nc3ccc(N4CCN(C5COC5)CC4)cc3)c2n1
pEC50 [1]: 6.72 | pIC50 [2]: 7.94 | solubility [3]: 3 µM (≈ 1.41 µg/mL) | CLhep predicted [4]: 0.17 L/h/kg | solubility [5]: > 100 µM

c1cn2cc(-c3ccc4cn[nH]c4c3)nc(Nc3ccc(N4CC5(CCOCC5)C4)cc3)c2n1
logD [7]: 1.9 to 2.7 | pEC50 [1]: 7.09 | pIC50 [2]: 8.05 | solubility [3]: 3 µM (≈ 1.35 µg/mL) | CLhep predicted [4]: 0.24 L/h/kg | solubility [5]: 77 µM (≈ 34.8 µg/mL) | pEC50 [6]: 5.66

c1cn2cc(-c3ccc4nc[nH]c4n3)nc(Nc3ccc(N4CCN(C5COC5)CC4)cc3)c2n1
pEC50 [1]: 7.18 | pIC50 [2]: 7.50 | solubility [3]: 90 µM (≈ 42.1 µg/mL) | CLhep predicted [4]: 0.17 L/h/kg | solubility [5]: > 100 µM | pEC50 [6]: 7.05

c1cn2cc(-c3ccc4c(c3)NCCO4)nc(Nc3ccc(N4CCN(C5COC5)CC4)cc3)c2n1
pEC50 [1]: 7.34 | pIC50 [2]: 7.67 | solubility [3]: 29 µM (≈ 14 µg/mL) | CLhep predicted [4]: 0.91 L/h/kg | solubility [5]: > 100 µM | pEC50 [6]: 5.91

c1cn2cc(-c3ccc4cn[nH]c4c3)nc(Nc3ccc(N4[C@H]5COC[C@@H]4COC5)cc3)c2n1
logD [7]: 1.9 to 2.7 | pEC50 [1]: 7.48 | pIC50 [2]: 7.86 | solubility [3]: < 1 µM | CLhep predicted [4]: 0.59 L/h/kg | solubility [5]: < 1 µM | pEC50 [6]: 6.88

c1cn2cc(-c3cnc4cc[nH]c4n3)nc(Nc3ccc(N4CCN(C5COC5)CC4)cc3)c2n1
pEC50 [1]: 7.96 | pIC50 [2]: 8.77 | solubility [3]: 5 µM (≈ 2.34 µg/mL) | CLhep predicted [4]: 0.2 L/h/kg | solubility [5]: > 100 µM | pEC50 [6]: 7.32

c1cn2cc(-c3ccc4cn[nH]c4c3)nc(Nc3ccc(N4CC5COCC5C4)cc3)c2n1 (centres undefined)
logD [7]: 1.9 to 2.7 | pEC50 [1]: 6.73 | pIC50 [2]: 8.02 | solubility [3]: < 1 µM | CLhep predicted [4]: 0.27 L/h/kg | solubility [5]: 24 µM (≈ 10.5 µg/mL) | pEC50 [6]: 5.66

CCN1CCN(c2ccc(Nc3nc(-c4ccc5cn[nH]c5c4)cn4ccnc34)cc2)CC1
logD [7]: 1.9 to 2.7 | pEC50 [1]: 7.44 | pIC50 [2]: 9.10 | solubility [3]: 10 µM (≈ 4.39 µg/mL) | CLhep predicted [4]: 0.2 L/h/kg | solubility [5]: > 100 µM | pEC50 [6]: 6.34

c1cn2cc(-c3ccc4cn[nH]c4c3)nc(Nc3ccc(N4CCN(C5COC5)CC4)cc3)c2n1
efflux ratio [8]: 2.9 | logD [7]: 1.9 to 2.7 | pEC50 [1]: 7.28 | Papp [9]: 55 nm/s | bioavailability [10]: 42% | pIC50 [2]: 8.04 | solubility [3]: < 1 µM | CLhep predicted [4]: 0.18 L/h/kg | solubility [5]: > 100 µM | pEC50 [6]: 6.41

c1cn2cc(-c3cnc4c(n3)NCCO4)nc(Nc3ccc(N4CCN(C5COC5)CC4)cc3)c2n1
efflux ratio [8]: 3 | pEC50 [1]: 7.07 | Papp [9]: 110 nm/s | bioavailability [10]: 21% | pIC50 [2]: 8.11 | solubility [3]: 99 µM (≈ 48.1 µg/mL) | CLhep predicted [4]: < 0.11 L/h/kg | solubility [5]: > 100 µM | pEC50 [6]: 7.10

Nc1cccc(-c2cn3ccnc3c(Nc3ccc(N4CCN(C5COC5)CC4)cc3)n2)n1
pEC50 [1]: 6.57 | pIC50 [2]: 7.35 | solubility [3]: 52 µM (≈ 23 µg/mL) | CLhep predicted [4]: 0.13 L/h/kg | solubility [5]: > 100 µM | pEC50 [6]: 6.51

c1cn2cc(-c3cnc4cn[nH]c4n3)nc(Nc3ccc(N4CCN(C5COC5)CC4)cc3)c2n1
pEC50 [1]: 7.43 | pIC50 [2]: 8.49 | solubility [3]: 2 µM (≈ 0.937 µg/mL) | CLhep predicted [4]: 0.14 L/h/kg | solubility [5]: > 100 µM | pEC50 [6]: 6.81

c1cn2cc(-c3cnc4c(c3)NCCO4)nc(Nc3ccc(N4CCN(C5COC5)CC4)cc3)c2n1
pEC50 [1]: 7.33 | bioavailability [10]: 38% | pIC50 [2]: 8.08 | solubility [3]: > 100 µM | CLhep predicted [4]: 0.25 L/h/kg | solubility [5]: > 100 µM | pEC50 [6]: 7.05

OC[C@H]1CN(c2ccc(Nc3nc(-c4ccc5cn[nH]c5c4)cn4ccnc34)cc2)CCO1
logD [7]: 1.9 to 2.7 | pEC50 [1]: 7.54 | pIC50 [2]: 8.96 | solubility [3]: 1.2 µM (≈ 0.53 µg/mL) | CLhep predicted [4]: 0.26 L/h/kg | solubility [5]: 87 µM (≈ 38.4 µg/mL) | pEC50 [6]: 6.30

CN(C)C[C@@H]1CN(c2ccc(Nc3nc(-c4ccc5cn[nH]c5c4)cn4ccnc34)cc2)CCO1
efflux ratio [8]: 29 | logD [7]: 1.9 to 2.7 | pEC50 [1]: 6.96 | Papp [9]: 5 nm/s | bioavailability [10]: 2% | pIC50 [2]: 9.05 | solubility [3]: 78 µM (≈ 36.5 µg/mL) | CLhep predicted [4]: 0.23 L/h/kg | solubility [5]: 90 µM (≈ 42.2 µg/mL) | pEC50 [6]: 6.64

From ChEMBL document CHEMBL4602710 (ACS Med Chem Lett, 2020)
